Values quoted from earlier work, collected in patent US20230406931A1, “Adjuvant Durvalumab in Combination with Chemotherapy for Treatment of Cancer” (ASTRAZENECA AB, priority 2020, published 2023).

Columns and labels:
[1] = durvalumab versus placebo following definitive concurrent chemoradiation, PACIFIC study; cited from earlier work
PD-L1 = PD-L1 (Homo sapiens, UniProt Q9NZQ7); conditions: in vitro; cited from earlier work
xenograft tumor = conditions: xenograft model, via a T-cell dependent mechanism; cited from earlier work

Chain of PD-L1 (Q9NZQ7 19-290): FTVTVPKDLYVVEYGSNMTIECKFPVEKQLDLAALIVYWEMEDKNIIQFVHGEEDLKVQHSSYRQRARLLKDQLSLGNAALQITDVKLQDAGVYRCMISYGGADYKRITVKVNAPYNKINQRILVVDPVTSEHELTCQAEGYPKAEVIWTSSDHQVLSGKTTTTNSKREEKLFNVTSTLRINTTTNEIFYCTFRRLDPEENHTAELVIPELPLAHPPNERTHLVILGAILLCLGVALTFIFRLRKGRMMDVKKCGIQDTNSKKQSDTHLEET

durvalumab: antibody that selectively binds PD-L1 and blocks the binding of PD-L1 to the PD-1 and CD80 receptors
overall survival (OS) [1]: improved | progression-free survival (PFS) [1]: improved | relief of PD-L1-mediated suppression of human T-cell activation (PD-L1): relieve PD-L1-mediated suppression of human T-cell activation | tumor growth (xenograft tumor): inhibits tumor growth
